Measurements as given in patent publication US7754718B2 (priority 2004, dated 2010).

Legend:
EBV = test: In vitro antiviral assay for EBV; type: cell-based, Epstein-Barr Virus; conditions: human gammaherpesvirus 4, read-out: Antiviral Activities (EC50, μM) EBV
Protocol: (§1) The antiviral assays for HBV, (Doong et al., 1991, Proc. Natl. Acad. Sci. U.S.A. 88:8495-8499) HSV-1, (Bastow et al., 1983, Antimicrob. Agents Chemother. 23: 914-917) HSV-2, (Bastow et al., 1983, Antimicrob. Agents Chemother. 23:914-917) EBV, (Yao et al., 1993, Antimicrob. Agents Chemother. 37:1420-1425), CMV (Andreoni et al., 2002, J. Med. Virol. 67:33-40) and HIV (Mellors et al., 1992, Mol. Pharmacol. 41: 446-451) were performed according to the previously reported procedures. Anti-HCV activities were tested in Huh-Luc/neo cell line. Cells were seeded into 48-well plates and grown until confluent. Different concentrations of drugs were added into media (DMEM, 10% dFBS) and incubated for 3 days. At the end of 3-day treatment, medium were removed and 50 μl of Passive lysis buffer (Promega) were added. Cell lysate was shaken at room temperature for 15 min. 30 μl/well of cell lysate was transferred to another 96-well plate, 100 μl/well of luciferase activity assay substrate was added into plate and read by a luminometer (Amersham) immediately.

[1] = Cell cytotoxicity assay on MT-2 cells; type: cell-based; conditions: human, read-out: Cytotoxity (ID50, μM) MT-2
Protocol: (§2) Cytotoxicities of test compounds on MT-2 (Mellors et al., 1992 Mol. Pharmacol. 41:446-451) and CEM (Grove et al., 1995, Cancer Res. 55:3008-3011) cells were determined according to the previously reported procedures. Hepg2 cells were seeded at a density of 10^4 cells/ml/well in 24-well plates and cultured in MEME supplemented with 10% FBS at 37° C. and 5% CO2. Each test compound at different concentrations was added on the second day of the culture and the cells were incubated for another 3 days. At the end of the incubation period, the medium was removed and 0.5 ml of 0.5% methylene blue in 50% ethanol (v/v) was added to each well and set at room temperature for 30-60 minutes. The methylene blue was removed; the plates were washed with water and allowed to air dry. Once dry, 1% sarcosyl was added to dissolve the stained cell layer. The absorbance at 595 nm was measured with a microplate reader (Molecular Devices Corp. Sunnyvale, Calif.). The cytotoxicity to CEM cell was calculated as described previously (Grove et al., 1995, Cancer Res. 55 (14): 3008-3011).

HBV = test: In vitro antiviral assay for HBV (Table 1); type: cell-based, Hepatitis B virus; conditions: Hepatitis B virus, read-out: Antiviral Activities (EC50, μM) HBV
Protocol: as §1

[2] = Cell cytotoxicity assay on CEM cells; type: cell-based; conditions: human, read-out: Cytotoxity (ID50, μM) CEM
Protocol: as §2

HSV-2 = test: In vitro antiviral assay for HSV-2; type: cell-based, Herpes Simplex Virus 2; conditions: Human alphaherpesvirus 2, read-out: Antiviral Activities (EC50, μM) HSV-2
Protocol: as §1

HSV-1 = test: In vitro antiviral assay for HSV-1; type: cell-based, Herpes Simplex Virus 1; conditions: Human alphaherpesvirus 1, read-out: Antiviral Activities (EC50, μM) HSV-1
Protocol: as §1

HIV = test: In vitro antiviral assay for HIV; type: cell-based, human immunodeficiency virus; conditions: Human immunodeficiency virus 1, read-out: Antiviral Activities (EC50, μM) HIV, in vitro; (T) after a value means toxic
Protocol: as §1

HCV = test: Anti-HCV activity in Huh-Luc/neo cell line, luciferase activity after 3-day treatment; type: cell-based, Hepatitis C virus; conditions: Hepatitis C virus, 72 h, Huh-Luc/neo cells, 3 days; for EC50: given as a bound only, read-out: Antiviral Activities (EC50, μM) HCV
Protocol: as §1

[3] = read-out: HCV percent of inhibition

Question: For CC(=O)NN1C(=O)c2cc3ccc4c(c3c(-c3ccc5c(c3)OCO5)c2C1=O)OCO4 [Compound 25, N-(10-Benzo[1,3]dioxol-5-yl-7,9-dioxo-7,9-dihydro-1,3-dioxa-8-aza-dicyclopenta[a,g]naphthalen-8-yl)-acetamide], which EC50 (EBV) is on record?
Answer: > 20 µM

Question: And the IC50 [1]?
Answer: > 100 µM

Question: And the EC50 (HBV)?
Answer: > 10 µM

Question: What about the IC50 [2] of the same molecule?
Answer: 93 µM

Question: And the EC50 (HSV-2)?
Answer: > 40 µM

Question: What about the EC50 (HSV-1) of the same molecule?
Answer: > 40 µM

Question: What about the EC50 (HIV) of the same molecule?
Answer: > 100 µM

Question: What about the melting point of the same molecule?
Answer: 281 to 283 °C

Question: And the EC50 (HCV)?
Answer: > 10 µM

Question: Which EC50 (EBV) does the source give for O=C1NCc2c1cc1c(Br)cc3c(c1c2-c1ccc2c(c1)OCO2)OCO3 [Compound 40, 10-Benzo[1,3]dioxol-5-yl-5-bromo-8,9-dihydro-1,3-dioxa-8-aza-dicyclopenta[a,g]naphthalen-7-one] here?
Answer: > 20 µM

Question: And the IC50 [1]?
Answer: 54 µM

Question: What about the EC50 (HBV) of the same molecule?
Answer: > 20 µM

Question: And the IC50 [2]?
Answer: 38 µM

Question: And the EC50 (HSV-2)?
Answer: > 20 µM

Question: What about the EC50 (HSV-1) of the same molecule?
Answer: 6.5 µM

Question: What about the EC50 (HIV) of the same molecule?
Answer: > 54 µM

Question: And the melting point?
Answer: 285 °C (dec.)

Question: What about the inhibition at 10 µM (HCV; [3]) of the same molecule?
Answer: 32%

Question: For O=C1OCc2c1cc1c(Br)cc3c(c1c2-c1ccc2c(c1)OCO2)OCO3 [Compound 38, 10-Benzo[1,3]dioxol-5-yl-5-bromo-9H-furo[3′,4′:6,7]naphtho[1,2-d][1,3]dioxol-7-one], which EC50 (EBV) is on record?
Answer: > 15 µM

Question: What about the IC50 [1] of the same molecule?
Answer: > 100 µM

Question: What about the EC50 (HBV) of the same molecule?
Answer: > 60 µM

Question: And the IC50 [2]?
Answer: 100 µM

Question: And the EC50 (HSV-2)?
Answer: > 50 µM

Question: What about the EC50 (HSV-1) of the same molecule?
Answer: > 50 µM

Question: And the EC50 (HIV)?
Answer: > 100 µM

Question: And the melting point?
Answer: 256 °C (dec.)

Question: And the EC50 (HCV)?
Answer: > 10 µM

Question: Which EC50 (EBV) does the source give for O=C1c2cc3ccc4c(c3c(-c3ccc5c(c3)OCO5)c2CN1CCCO)OCO4 [Compound 21, 10-Benzo[1,3]dioxol-5-yl-8-(3-hydroxy-propyl)-8,9-dihydro-1,3-dioxa-8-aza-dicyclopenta[a,g]naphthalen-7-one] here?
Answer: > 20 µM

Question: What about the IC50 [1] of the same molecule?
Answer: 22 µM

Question: And the EC50 (HBV)?
Answer: > 20 µM

Question: What about the IC50 [2] of the same molecule?
Answer: 22 µM

Question: What about the EC50 (HSV-2) of the same molecule?
Answer: 7 µM

Question: What about the EC50 (HSV-1) of the same molecule?
Answer: 5 µM

Question: And the EC50 (HIV)?
Answer: 5 µM

Question: What about the melting point of the same molecule?
Answer: 213 to 215 °C

Question: And the inhibition at 10 µM (HCV; [3])?
Answer: 58%

Question: For COC(=O)c1cc2ccc3c(c2c(-c2ccc4c(c2)OCO4)c1C(=O)OC)OCO3 [Compound 30, 9-Benzo[1,3]dioxol-5-yl-naphtho[1,2-d][1,3]dioxole-7,8-dicarboxylic acid dimethyl ester], which EC50 (EBV) is on record?
Answer: > 20 µM

Question: And the IC50 [1]?
Answer: 28 µM

Question: What about the EC50 (HBV) of the same molecule?
Answer: > 20 µM

Question: What about the IC50 [2] of the same molecule?
Answer: 50 µM

Question: What about the EC50 (HSV-2) of the same molecule?
Answer: > 50 µM

Question: And the EC50 (HSV-1)?
Answer: > 50 µM

Question: And the EC50 (HIV)?
Answer: > 28 µM

Question: And the melting point?
Answer: 157 to 159 °C

Question: What about the inhibition at 10 µM (HCV; [3]) of the same molecule?
Answer: 93%

Question: With CN1Cc2cc3ccc4c(c3c(-c3ccc5c(c3)OCO5)c2C1=O)OCO4 [Compound 17, 10-Benzo[1,3]dioxol-5-yl-8-methyl-7,8-dihydro-1,3-dioxa-8-aza-dicyclopenta[a,g]naphthalen-9-one] as the molecule, how does the EC50 (EBV) read?
Answer: > 20 µM

Question: And the IC50 [1]?
Answer: 26 µM

Question: And the EC50 (HBV)?
Answer: > 10 µM

Question: What about the IC50 [2] of the same molecule?
Answer: 27 µM

Question: And the EC50 (HSV-2)?
Answer: 14 µM

Question: And the EC50 (HSV-1)?
Answer: 14 µM

Question: And the EC50 (HIV)?
Answer: > 26 µM

Question: And the melting point?
Answer: 242 to 244 °C

Question: And the inhibition at 3 µM (HCV; at 3 μM, read-out: HCV percent of inhibition)?
Answer: 29%

Question: Which EC50 (EBV) does the source give for COC(=O)c1c(C(=O)O)cc2ccc3c(c2c1-c1ccc2c(c1)OCO2)OCO3 [Compound 31, 9-Benzo[1,3]dioxol-5-yl-naphtho[1,2-d][1,3]dioxole-7,8-dicarboxylic acid 8-methyl ester] here?
Answer: > 20 µM

Question: What about the IC50 [1] of the same molecule?
Answer: 90 µM

Question: And the EC50 (HBV)?
Answer: > 20 µM

Question: What about the IC50 [2] of the same molecule?
Answer: 74 µM

Question: And the EC50 (HSV-2)?
Answer: > 50 µM

Question: What about the EC50 (HSV-1) of the same molecule?
Answer: > 50 µM

Question: And the EC50 (HIV)?
Answer: > 90 µM

Question: What about the melting point of the same molecule?
Answer: 273 to 275 °C

Question: And the EC50 (HCV)?
Answer: > 10 µM

Question: Which EC50 (EBV) does the source give for O=C1OCc2c1cc1c(I)cc3c(c1c2-c1ccc2c(c1)OCO2)OCO3 [Compound 39, 10-Benzo[1,3]dioxol-5-yl-5-iodo-9H-furo[3′,4′:6,7]naphtho[1,2-d][1,3]dioxol-7-one] here?
Answer: > 10 µM

Question: What about the IC50 [1] of the same molecule?
Answer: 80 µM

Question: And the EC50 (HBV)?
Answer: > 40 µM

Question: And the IC50 [2]?
Answer: 70 µM

Question: And the EC50 (HSV-2)?
Answer: > 25 µM

Question: What about the EC50 (HSV-1) of the same molecule?
Answer: > 25 µM

Question: And the EC50 (HIV)?
Answer: > 80 µM

Question: And the melting point?
Answer: 255 °C (dec.)

Question: What about the EC50 (HCV) of the same molecule?
Answer: > 10 µM
